Source: patent US20230285570A1, “THERAPEUTICALLY USEFUL CURE-PRO MOLECULES FOR E3 LIGASE MEDIATED DEGRADATION OF PROTEINS, AND METHODS OF MAKING AND USING THEM” (CORNELL UNIVERSITY, priority 2020, published 2023)
Entries after “also recorded” stand apart in the source; their conditions may differ.

Columns and labels:
BRD4 = BRD4 (Homo sapiens, UniProt O60885); experiment: CURE-PRO-mediated BRD4 degradation in MCF7 cells, Western blot; assay type: cell-based; set-up: endogenous in cells; details: 1:1 with VHL ligand 8305, MCF7, 24 h, 100 nM-10 μM
Protocol: (§1) Namalwa, Ramosm HeLa, MCF7, or HT29 HCT116 cells (2.5-3×10^6) were treated for 24 hours with the indicated compounds solubilized in DMSO. The cells were washed in ice-cold PBS and were then lysed in RIPA lysis buffer (150 mM NaCl, 5 mM EDTA, 1% NP-40, 0.5% sodium deoxycholate, 0.1% SDS, 50 mM Tris, pH 8.0.) with Roche protease inhibitor complete cocktail and phosphatase inhibitors (10 mM sodium fluoride, 10 mM sodium pyrophosphate, 1 mM sodium orthovanadate and 20 mM β-glycerophosphate). The total protein concentrations were determined by Bradford Protein Assay (Pierce) and 10-20 μg of protein was loaded onto 4-15% Tris-Glycine gradient gels (Biorad). After standard gel electrophoresis, the separated proteins were transferred to PVDF membrane by wet transfer. The immunoblots were then blocked for 1 hour in 5% skim milk in TBST or 5% BSA in TBST, according to manufacturer's instructions, before an overnight incubation at 4° C. with indicated antibodies and membranes. Membranes were then incubated with the appropriate horseradish peroxidase-conjugated secondary antibodies (1:5,000 dilution) for 1 h at room temperature and the bands were visualized using the Clarity Max Western ECL Substrate (Biorad) and the ChemiDoc Imaging System (Biorad). Signal was detected with ECL Western Blotting Substrate (Pierce) and X-ray film processed with a Konica SRX-101 X-ray film processor or captured by Bio-Rad's Chemidoc Imaging system.
MCF7 cells (3×10^6) were treated for 24 h with the compounds solubilized in DMSO. Compounds were added at 100 nM-10 μM. Standardized protein samples were electrophoresed and imaged as described in the Immunoblotting section above. FIG. 69 depicts the CURE-PRO-mediated BRD4 degradation for the BRD-E9 monomer and VHL ligands 8305 combined in a 1:1 ratio, and FIG. 70 depicts the CURE-PRO-mediated BRD4 degradation for the BRD-E20 monomer and 8305.
MCF7 cells (3×10^6) were treated for 24 h with the compounds solubilized in DMSO. Compounds were added at 1 μM-10 μM. Standardized protein samples were electrophoresed and imaged as described in the Immunoblotting section above. FIG. 71 depicts the CURE-PRO-mediated BRD4 degradation for the BRD-E50 monomer and VHL ligands 8305 and 8304 combined in a 1:1 ratio.

BRD3 = biological target: T1, BRD3 (Homo sapiens, UniProt Q15059); experiment: BRD protein family degradation in HCT116 cells, Western blot: BRD3; assay type: cell-based; details: 1:1 with MDM2 ligands 8310 and 8312 (each), HCT116, 24 h, 100 nM-10 μM
T1 construct: endogenous in cells; host or cells: HCT116
Protocol: as §1, with “Membranes were then incubated with the appropriate horseradish peroxidase-conjugated secondary antibodies (1:5,000 dilution) for 1 h at room temperature and the bands were visualized using the Clarity Max Western ECL Substrate (Biorad) and the ChemiDoc Imaging System (Biorad).” left out, “system. […]” for “system.”

T1 sequence (Q15059 whole entry): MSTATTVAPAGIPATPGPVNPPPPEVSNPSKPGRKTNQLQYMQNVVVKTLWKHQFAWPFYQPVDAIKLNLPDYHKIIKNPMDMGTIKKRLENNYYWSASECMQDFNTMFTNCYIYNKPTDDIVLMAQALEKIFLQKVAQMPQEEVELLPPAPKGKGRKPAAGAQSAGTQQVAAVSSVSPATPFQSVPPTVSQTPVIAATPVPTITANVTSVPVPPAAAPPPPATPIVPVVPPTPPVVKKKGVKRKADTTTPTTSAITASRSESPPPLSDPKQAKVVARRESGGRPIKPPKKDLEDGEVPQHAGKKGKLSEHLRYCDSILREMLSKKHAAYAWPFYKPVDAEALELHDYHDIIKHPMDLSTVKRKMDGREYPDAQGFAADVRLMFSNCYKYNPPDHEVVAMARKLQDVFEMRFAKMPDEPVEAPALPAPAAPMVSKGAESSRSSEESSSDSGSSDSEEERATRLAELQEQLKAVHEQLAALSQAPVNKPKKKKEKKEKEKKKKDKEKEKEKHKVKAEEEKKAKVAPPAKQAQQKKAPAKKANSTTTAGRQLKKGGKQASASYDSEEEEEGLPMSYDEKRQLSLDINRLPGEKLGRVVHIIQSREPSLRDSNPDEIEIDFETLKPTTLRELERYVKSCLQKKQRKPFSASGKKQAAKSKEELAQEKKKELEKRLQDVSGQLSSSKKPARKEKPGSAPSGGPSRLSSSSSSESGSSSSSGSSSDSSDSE

Compound	BRD4 degradation (BRD4)	BRD3 degradation (BRD3)
CCNC(=O)C[C@@H]1N=C(c2ccc(Cl)cc2)c2cc(OCCCCC(=O)Nc3cccc(B(O)O)c3)ccc2-n2c(C)nnc21 [BRD-E20, (3-(5-(((4S)-6-(4-chlorophenyl)-4-(2-(ethylamino)-2-oxoethyl)-1-methyl-4H-benzo[f][1,2,4]triazolo[4,3-a][1,4]diazepin-8-yl)oxy)pentanamido)phenyl)boronic acid]	there is degradation of BRD4	–
CCNC(=O)C[C@@H]1N=C(c2ccc(Cl)cc2)c2cc(OCCOCCNC(=O)c3cccc(O)c3O)ccc2-n2c(C)nnc21 [BRD-N39, N-(2-(2-(((4S)-6-(4-chlorophenyl)-4-(2-(ethylamino)-2-oxoethyl)-1-methyl-4H-benzo[f][1,2,4]triazolo[4,3-a][1,4]diazepin-8-yl)oxy)ethoxy)ethyl)-2,3-dihydroxybenzamide]	–	degradation of BRD3; also recorded: Degradation is evident
